From the supplement of paper PMC10307832

Experiments:
Assay in all cases: relative viability (nuclei count vs DMSO), 5 days (fraction); higher = more cells survive
Daporinad + Lapatinib = compound: O=C(/C=C/c1cccnc1)NCCCCC1CCN(C(=O)c2ccccc2)CC1 [Daporinad] + CS(=O)(=O)CCNCc1ccc(-c2ccc3ncnc(Nc4ccc(OCc5cccc(F)c5)c(Cl)c4)c3c2)o1 [Lapatinib] (partner 2 µM)
In short: (§1)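 Values are medians from duplicate plates. Each reflects relative viability, defined as the nuclei count of treated wells over that of vehicle wells. Lung cancer cell lines in 1536-well plates were pin-tool dosed one day after seeding with one drug alone or with a fixed anchor-drug dose plus five library-drug doses (not always all listed) in √10 steps, then fixed, stained and imaged at 4× after 5 days.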

R406 + OSI-027 = compound: COc1cc(Nc2ncc(F)c(Nc3ccc4c(n3)NC(=O)C(C)(C)O4)n2)cc(OC)c1OC [R406] + COc1cccc2cc(-c3nc([C@H]4CC[C@H](C(=O)O)CC4)n4ncnc(N)c34)[nH]c12 [OSI-027] (partner 0.5 µM)
In short: as §1

Daporinad + Luminespib = compound: O=C(/C=C/c1cccnc1)NCCCCC1CCN(C(=O)c2ccccc2)CC1 [Daporinad] + CCNC(=O)c1noc(-c2cc(C(C)C)c(O)cc2O)c1-c1ccc(CN2CCOCC2)cc1 [Luminespib] (partner 0.01 µM)
In short: as §1

Daporinad + AZD7762 = compound: O=C(/C=C/c1cccnc1)NCCCCC1CCN(C(=O)c2ccccc2)CC1 [Daporinad] + NC(=O)Nc1cc(-c2cccc(F)c2)sc1C(=O)N[C@H]1CCCNC1 [AZD7762] (partner 0.2 µM)
In short: as §1

Row | Cell Line | relative viability (Daporinad + Lapatinib; first compound 0.0005 µM) | relative viability (Daporinad + Lapatinib; first compound 0.001581 µM) | relative viability (Daporinad + Lapatinib; first compound 0.005 µM) | relative viability (Daporinad + Lapatinib; first compound 0.01581 µM) | relative viability (R406 + OSI-027; first compound 0.08 µM) | relative viability (R406 + OSI-027; first compound 0.253 µM) | relative viability (R406 + OSI-027; first compound 0.8 µM) | relative viability (R406 + OSI-027; first compound 2.53 µM) | relative viability (R406 + OSI-027; first compound 8 µM) | relative viability (Daporinad + Luminespib; first compound 0.0005 µM) | relative viability (Daporinad + Luminespib; first compound 0.001581 µM) | relative viability (Daporinad + Luminespib; first compound 0.005 µM) | relative viability (Daporinad + Luminespib; first compound 0.01581 µM) | relative viability (Daporinad + AZD7762; first compound 0.0005 µM) | relative viability (Daporinad + AZD7762; first compound 0.001581 µM) | relative viability (Daporinad + AZD7762; first compound 0.005 µM) | relative viability (Daporinad + AZD7762; first compound 0.01581 µM)
1 | NCI-H1563 | 1.1 | 1.07 | 0.844 | 0.862 | 0.736 | 0.734 | 0.831 | 0.638 | 0.543 | 0.535 | 0.582 | 0.493 | 0.485 | – | – | – | –
2 | NCI-H1623 | – | – | – | – | 0.408 | 0.429 | 0.398 | 0.411 | 0.43 | 0.618 | 0.497 | 0.472 | 0.555 | – | – | – | –
3 | NCI-H1299 | 0.956 | 0.954 | 0.955 | 1.05 | – | – | – | – | – | – | – | – | – | – | – | – | –
4 | NCI-H661 | 0.374 | 0.443 | 0.403 | 0.402 | 0.674 | 0.819 | 0.702 | 0.501 | 0.38 | 0.936 | 0.873 | 0.558 | 0.423 | – | – | – | –
5 | COR-L 105 | 0.371 | 0.371 | 0.385 | 0.442 | 0.659 | 0.612 | 0.752 | 0.405 | 0.235 | 0.807 | 0.805 | 0.82 | 0.738 | – | – | – | –
6 | NCI-H522 | – | – | – | – | 0.681 | 0.742 | 0.954 | 0.501 | 0.593 | 1.28 | 1.13 | 0.971 | 0.846 | 0.808 | 1.13 | 0.816 | 0.538
7 | NCI-H441 | – | – | – | – | 0.528 | 0.683 | 0.574 | 0.255 | 0.408 | 0.36 | 0.324 | 0.367 | 0.343 | 1.34 | 1.34 | 1.52 | 1.25
8 | NCI-H520 | 0.976 | 0.54 | 0.224 | 0.149 | 0.243 | 0.302 | 0.336 | 0.25 | 0.188 | 0.235 | 0.193 | 0.197 | 0.195 | – | – | – | –
9 | A549 | 0.973 | 1.05 | 0.938 | 0.607 | – | – | – | – | – | – | – | – | – | – | – | – | –
10 | NCI-H1648 | – | – | – | – | – | – | 0.255 | 0.249 | 0.28 | – | – | – | – | 0.649 | 0.577 | 0.674 | 0.653
11 | NCI-H2009 | 1.3 | 1.02 | 1.07 | 0.9 | 0.602 | 0.729 | 0.747 | 0.301 | 0.149 | 1.02 | 1.08 | 1 | 0.702 | – | – | – | –
12 | SW 900 | – | – | – | – | 0.649 | 0.874 | 0.75 | 0.113 | 0.247 | 0.19 | 0.159 | 0.181 | 0.17 | 0.647 | – | 0.72 | 0.654
13 | IA-LM | 1.02 | 0.771 | 0.664 | 0.876 | – | – | – | – | – | – | – | – | – | – | – | – | –
14 | COR-L23 | 0.969 | 0.993 | 0.92 | 0.403 | 0.704 | 0.794 | 0.995 | 0.527 | 0.397 | 0.615 | 0.696 | 0.734 | 0.199 | – | – | – | –
15 | ChaGo-K-1 | – | – | – | – | 0.606 | 0.565 | 0.672 | 0.386 | 0.471 | 0.529 | 0.508 | 0.425 | 0.414 | 0.834 | 0.903 | 0.755 | 0.3
